In patent US12398154B2, “Azaquinazoline pan-KRas inhibitors” (Mirati Therapeutics, Inc., priority 2020, dated 2025) one finds IC50 data, which are given here for 5 compounds.

The structures appear in SMILES notation.

One test has as its target T1, KRas G13D (Homo sapiens, UniProt P01116, G13D).
T1 construct: Biotinylated KRas (corresponding to amino acids 1-169, produced at Accelegan Inc.); biotin (biotinylated); purchased Accelegan Inc
In words: KRas binding assay (TR-FRET displacement).

Another test addresses T2, KRas Q61H (Homo sapiens, UniProt P01116, Q61H).
T2 construct: Biotinylated KRas (corresponding to amino acids 1-169, produced at Accelegan Inc.); biotin (biotinylated); purchased Accelegan Inc
In words: KRas binding assay (TR-FRET displacement).

A further test addresses KRas G12D (Homo sapiens, UniProt P01116, G12D). In words: biochemical.
A further test deals with KRas G12V (Homo sapiens, UniProt P01116, G12V). Description: biochemical.
KRas G12V, sequence (P01116 1-169 isoform P01116-2 G12V): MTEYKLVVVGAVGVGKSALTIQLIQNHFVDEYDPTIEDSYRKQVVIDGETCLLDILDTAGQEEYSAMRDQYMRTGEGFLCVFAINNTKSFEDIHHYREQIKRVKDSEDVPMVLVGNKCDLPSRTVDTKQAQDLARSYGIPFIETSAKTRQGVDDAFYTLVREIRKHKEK
The next test addresses KRas G12R (Homo sapiens, UniProt P01116, G12R). Description: biochemical.
A further test deals with KRas G12A (Homo sapiens, UniProt P01116, G12A). Description: biochemical.
KRas G12A, sequence (P01116 1-169 isoform P01116-2 G12A): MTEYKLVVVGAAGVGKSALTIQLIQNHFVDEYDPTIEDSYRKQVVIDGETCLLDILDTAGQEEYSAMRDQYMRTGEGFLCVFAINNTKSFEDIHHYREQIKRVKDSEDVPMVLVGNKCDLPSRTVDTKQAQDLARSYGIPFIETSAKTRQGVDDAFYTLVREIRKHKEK
The target of the next test is KRas G12S (Homo sapiens, UniProt P01116, G12S). In words: biochemical.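 Also: TR-FRET displacement binding to KRas, read after one hour incubation at room temperature, IC50 from four-parameter fit of percent of control.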
KRas G12S, sequence (P01116 1-169 isoform P01116-2 G12S): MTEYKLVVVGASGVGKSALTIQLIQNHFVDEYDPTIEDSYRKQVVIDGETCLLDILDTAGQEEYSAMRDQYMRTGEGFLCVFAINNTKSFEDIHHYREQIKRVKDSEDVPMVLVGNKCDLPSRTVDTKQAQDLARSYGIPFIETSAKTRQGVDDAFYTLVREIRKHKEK
In a further test the target is KRas G12C (Homo sapiens, UniProt P01116, G12C). In words: biochemical.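 Also: binding to KRas assessed by TR-FRET displacement after one hour incubation at room temperature, potency fitted from percent-of-control values.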
KRas G12C, sequence (P01116 1-169 isoform P01116-2 G12C): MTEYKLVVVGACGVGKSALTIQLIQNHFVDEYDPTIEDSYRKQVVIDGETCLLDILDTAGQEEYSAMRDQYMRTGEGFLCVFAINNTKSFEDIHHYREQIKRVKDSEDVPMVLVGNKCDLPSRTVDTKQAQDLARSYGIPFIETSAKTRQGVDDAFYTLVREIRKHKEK
In the next test the target is KRas WT (Homo sapiens, UniProt P01116). In words: biochemical.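 Also: binding to KRas read as TR-FRET displacement after a one-hour room-temperature incubation, IC50 derived from percent-of-control values.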
KRas WT, sequence (P01116 1-169 isoform P01116-2): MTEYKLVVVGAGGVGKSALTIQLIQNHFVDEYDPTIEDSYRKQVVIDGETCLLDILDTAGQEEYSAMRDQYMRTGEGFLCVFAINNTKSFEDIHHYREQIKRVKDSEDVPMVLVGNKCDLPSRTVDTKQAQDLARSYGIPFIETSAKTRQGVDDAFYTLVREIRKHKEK

KRas G12D, sequence (P01116 1-169 isoform P01116-2 G12D): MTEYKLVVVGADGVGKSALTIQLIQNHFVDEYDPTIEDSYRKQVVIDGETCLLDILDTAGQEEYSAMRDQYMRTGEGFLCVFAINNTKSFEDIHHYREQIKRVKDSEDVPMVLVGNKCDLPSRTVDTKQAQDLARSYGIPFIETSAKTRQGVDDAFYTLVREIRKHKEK
T1 sequence (P01116 1-169 isoform P01116-2 G13D): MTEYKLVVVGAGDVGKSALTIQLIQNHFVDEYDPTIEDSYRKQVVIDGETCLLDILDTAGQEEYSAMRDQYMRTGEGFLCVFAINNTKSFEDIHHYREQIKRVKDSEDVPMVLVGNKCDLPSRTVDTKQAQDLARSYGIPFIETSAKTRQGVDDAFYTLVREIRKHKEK
T2 sequence (P01116 1-169 isoform P01116-2 Q61H): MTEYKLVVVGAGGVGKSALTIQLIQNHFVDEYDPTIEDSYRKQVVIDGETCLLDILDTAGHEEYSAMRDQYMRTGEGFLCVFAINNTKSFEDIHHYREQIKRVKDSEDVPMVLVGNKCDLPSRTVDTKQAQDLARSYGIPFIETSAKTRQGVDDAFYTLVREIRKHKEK
KRas G12R, sequence (P01116 1-169 isoform P01116-2 G12R): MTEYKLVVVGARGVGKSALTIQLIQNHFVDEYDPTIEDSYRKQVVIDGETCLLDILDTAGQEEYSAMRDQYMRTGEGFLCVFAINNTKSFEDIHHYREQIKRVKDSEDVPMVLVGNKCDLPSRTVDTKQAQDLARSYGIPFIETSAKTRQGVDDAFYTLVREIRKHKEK

With `Fc1c(-c2cccc3cccc(F)c23)ncc2c(NCCc3c[nH]c4ncccc34)nc(OCC34CCCN3CCC4)nc12` [Example 212, N-(2-(1H-pyrrolo[2,3-b]pyridin-3-yl)ethyl)-8-fluoro-7-(8-fluoronaphthalen-1-yl)-2-((tetrahydro-1H-pyrrolizin-7a(5H)-yl)methoxy)pyrido[4,3-d]pyrimidin-4-amine], the IC50 at KRas G13D was determined as 10100 nM; at KRas Q61H it was 17400 nM; on KRas G12D it was 15.6 µM; against KRas G12V it was 1.35 µM; against KRas G12R, 0.88 µM; at KRas G12A, 2.83 µM. Moreover, the concentration for half-maximal inhibition (IC50) amounted to 6.45 µM on KRas G12S, 3.12 µM against KRas G12C and 8.36 µM at KRas WT.
Regarding `Fc1c(-c2cccc3cccc(F)c23)ncc2c(N3CC(c4ccncc4)C3)nc(OCC34CCCN3CCC4)nc12` [Example 213, 8-fluoro-7-(8-fluoronaphthalen-1-yl)-4-(3-(pyridin-4-yl)azetidin-1-yl)-2-((tetrahydro-1H-pyrrolizin-7a(5H)-yl)methoxy)pyrido[4,3-d]pyrimidine], the half-maximal inhibitory concentration (IC50) is 20500 nM at KRas G13D; 17700 nM at KRas Q61H; at least 100 µM against KRas G12D; 5.57 µM against KRas G12V; 4.25 µM on KRas G12R; 6.19 µM against KRas G12A. In addition, the IC50 at KRas G12S stood at 7.25 µM; against KRas G12C, 4.2 µM; against KRas WT, 16.8 µM.
`Fc1c(-c2cccc3cccc(F)c23)ncc2c(NCc3cnn4cccnc34)nc(OCC34CCCN3CCC4)nc12` [Example 214, 8-fluoro-7-(8-fluoronaphthalen-1-yl)-N-(pyrazolo[1,5-a]pyrimidin-3-ylmethyl)-2-((tetrahydro-1H-pyrrolizin-7a(5H)-yl)methoxy)pyrido[4,3-d]pyrimidin-4-amine]: the IC50 was 95100 nM at KRas G13D; 81100 nM at KRas Q61H; at least 100 µM against KRas G12D; 12.6 µM against KRas G12V; 16.4 µM against KRas G12R; 28.8 µM against KRas G12A. Moreover, the 50% inhibitory concentration (IC50) against KRas G12S is 34.6 µM; against KRas G12C it was 9.59 µM; on KRas WT it was 60 µM.
With `Fc1c(-c2cccc3cccc(F)c23)ncc2c(NCCc3ccn[nH]3)nc(OCC34CCCN3CCC4)nc12` [Example 215, N-(2-(1H-pyrazol-5-yl)ethyl)-8-fluoro-7-(8-fluoronaphthalen-1-yl)-2-((tetrahydro-1H-pyrrolizin-7a(5H)-yl)methoxy)pyrido[4,3-d]pyrimidin-4-amine], the half-inhibitory concentration (IC50) on KRas G13D was 47100 nM; on KRas Q61H, 57500 nM; against KRas G12D it was at least 100 µM; against KRas G12V, 17 µM; at KRas G12R, 8.95 µM; against KRas G12A, 26.1 µM. In addition, the values for the IC50 against KRas G12S, against KRas G12C and at KRas WT were 23.5 µM, 17.8 µM and 34 µM, respectively.
In the case of `N#Cc1ccccc1N1CCN(c2nc(OCC34CCCN3CCC4)nc3c(F)c(-c4cccc5cccc(F)c45)ncc23)CC1` [Example 216, 2-(4-(8-fluoro-7-(8-fluoronaphthalen-1-yl)-2-((tetrahydro-1H-pyrrolizin-7a(5H)-yl)methoxy)pyrido[4,3-d]pyrimidin-4-yl)piperazin-1-yl)benzonitrile], the half-inhibitory concentration (IC50) on KRas G13D is 59000 nM; on KRas Q61H it was 83200 nM; at KRas G12D, at least 100 µM; at KRas G12V, 17.9 µM; on KRas G12R it was 2.57 µM; against KRas G12A, 13.8 µM. In addition, the IC50 at KRas G12S is 41 µM; on KRas G12C, 6.3 µM; against KRas WT it was 30.9 µM.
